Patent publication US20230322715A1, “BROAD SPECTRUM ANTI-CANCER COMPOUNDS” (The Regents of the University of California, priority 2019, published 2023)
“Also recorded” adds a separate entry of the source.

Columns and labels:
FTO [1] = target: T1, FTO (Homo sapiens (Human), UniProt Q9C0B1); assay: Fluorescence enzymatic inhibition assay (m6A7-Broccoli RNA / DFHBI-1T) against FTO; format: biochemical; conditions: IC50 compared with MA (12.5)
Procedure, shortened: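 m6A7-Broccoli RNA demethylated by FTO with 300 μM 2-oxoglutarate, 300 μM Fe(II), 2 mM ascorbate in 50 mM NaHEPES pH 6, 2 h at room temperature; inhibitors 0.008-40 μM, 0.2% DMSO. DFHBI-1T fluorescence after 16 h at 4 °C; sigmoidal dose-response fits, triplicate.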

FTO [2] = target: T1, FTO; assay: ELISA-based FTO inhibition assay (orthogonal control); format: biochemical; conditions: biotinylated m6A-RNA, 0-40 μM inhibitor; read-out: IC50 against FTO by ELISA assay
Procedure: The reaction mixture was then incubated with neutravidin coated 96-well plates overnight at 4° C., washed and blocked, incubated with m^6 A-specific antibody for 1 hour at room temperature, washed and blocked, and incubated with horseradish peroxidase-conjugated secondary antibody for 1 hour at room temperature. After extensive washing, the wells were treated with 3,3′,5,5′-tetramethylbenzidine (TMB) for 30 minutes at room temperature and the absorbance was measured at 390 nm. Absorbance was normalized to control wells for each concentration of inhibitor without cofactor 2-oxoglutarate to control for non-specific antibody binding, and the data were fit to a sigmoidal dose-response curve in GraphPad Prism 6.
The reaction mixture was then incubated with neutravidin coated 96-well plates (Pierce) overnight at 4° C., washed and blocked, incubated with m6A -specific primary antibody (Abcam ab151230, 1:400 dilution) for 1 hour at room temperature, washed and blocked (phosphate buffer saline with 0.1% tween-20 (PBST); blocked in 5% of non-fat milk in PBST buffer), and incubated with horseradish peroxidase-conjugated secondary antibody (Sigma-Aldrich, A6154, 1:5000 dilution) for 1 hour at room temperature. […]

FTO [3] = target: T1, FTO; assay: Steady-state (Michaelis-Menten) inhibition kinetics of FTO; format: biochemical; conditions: velocity and double reciprocal plots, 0-40 μM inhibitor, substrate 0-10 μM
[4] = system: TS576 glioblastoma stem cells; assay: Neurosphere (tumorosphere) formation assay, TS576; format: cell-based, human; conditions: 2 days
Procedure: To understand the effects of our FTO inhibitors on the self-renewal properties of GSCs, tumorospheres cultured from the patient-derived GSC line TS576 were treated with 30 μM of FTO-04, FTO-10, FTO-11, or FTO-12 (FIG. 4-3AB; cell line gifted from the Furnari lab)^0.45, 46 The GSCs were cultured in sphere-forming assays for 24 hours, then treated with either inhibitors or DMSO control for 2 days. The size of the tumorospheres was calculated using ImageJ.
Early passaged GSCs were used to understand the efficacy of ALK-04 on the self-renewal capacity of GSCs by tumorsphere-formation assay as described earlier^10, 11. In brief, GSCs were seeded at 4×10^4 cells in 24 well plate and cultured for 3 days followed by treatment with ALK-04 inhibitors at 20 μM daily for 3 days. After 3 days of treatment the images of the tumorospheres were imaged with phase contrast microscope and size was measured with Image J, to understand the effects of drugs on the self-renewal of GSCs on sphere formation. This process was also repeated for healthy neural stem cells (hNSCs) treated daily with 20 μM ALK-04 for three days to assess the therapeutic ratio.

[5] = system: GBM-GSC-23 glioblastoma stem cells; assay: Neurosphere (tumorosphere) formation assay, GBM-GSC-23; format: cell-based, human; conditions: GSC-23, 20 μM, 2 days
[6] = system: GBM-6 glioblastoma stem cells; assay: Neurosphere (tumorosphere) formation assay, GBM-6; format: cell-based, human; conditions: GBM-6, 20 μM, 2 days
[7] = system: human neural stem cells (hNSC); assay: Neurosphere formation assay, healthy neural stem cells; format: cell-based; conditions: 20 μM, 2 days
[8] = system: m6A mRNA levels in TS576 cells; assay: m6A dot blot assay on poly(A)+ mRNA; format: cell-based, human; conditions: TS576 poly(A)+ mRNA, 2, 10, 50 ng, vs DMSO or shControl
Procedure: Next, we sought to determine if FTO-04 was able to alter m6A levels in purified mRNA from GSCs by m6A dot blot assay. TS576 cells were treated with 2, 10, and 50 ng shControl or shFTO to establish the relative change in m6A mRNA levels due to FTO knockdown. […] TS576 cells were then treated with 2, 10, and 50 ng of either DMSO or FTO-04 (FIG. 4-33B).
Polyadenylated mRNA were isolated from TS576 cells treated with either DMSO, FTO-04 (30 μM), and control (shControl) or FTO lentivirus (shFTO) knockdown samples by using Magnetic mRNA Isolation Kit (New England Biolabs, S1550S). Isolated mRNA was quantified, serially diluted and denatured at 95° C. for 3 min, then chilled on ice to prevent reformation of secondary structure of mRNA. Denatured mRNA samples were spotted on an Amersham Hybond-N^+ membrane (GE Healthcare, RPN3050B) and cross-linked to the membrane with UV radiation. After crosslinking the membrane was washed with phosphate buffer saline with 0.1% tween-20 (PBST) and blocked in 5% of non-fat milk in PBST buffer, and then incubated with anti-m^6 A antibody (1:1000; abcam) overnight at 4° C. The membrane was then washed as before and incubated in HRP-conjugated secondary antibodies for 1 h at room temperature. The membrane was then developed with Thermo ECL SuperSignal West Femto Maximum Sensitivity Substrate (Thermo Fisher Scientific).

T1 sequence (Q9C0B1 whole entry): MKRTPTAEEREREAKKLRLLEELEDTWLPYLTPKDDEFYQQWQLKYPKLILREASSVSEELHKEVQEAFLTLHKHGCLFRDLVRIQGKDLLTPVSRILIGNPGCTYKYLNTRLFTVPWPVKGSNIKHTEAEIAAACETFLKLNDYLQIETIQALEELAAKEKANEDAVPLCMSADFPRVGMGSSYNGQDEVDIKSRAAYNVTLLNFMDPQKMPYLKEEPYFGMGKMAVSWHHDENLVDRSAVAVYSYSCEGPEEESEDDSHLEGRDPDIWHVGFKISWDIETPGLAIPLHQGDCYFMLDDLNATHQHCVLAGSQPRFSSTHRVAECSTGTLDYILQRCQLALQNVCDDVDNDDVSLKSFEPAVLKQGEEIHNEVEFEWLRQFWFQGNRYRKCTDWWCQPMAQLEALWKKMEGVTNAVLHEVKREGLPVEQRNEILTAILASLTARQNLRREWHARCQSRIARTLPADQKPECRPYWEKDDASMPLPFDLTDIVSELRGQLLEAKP

## COc1ncc(-c2ccc3nc(N)sc3c2)cn1 [FTO-04]
FTO [1]
  potency against FTO relative to MA (fold): approximately 4
FTO [2]
  IC50: 2790 ± 1300 nM
FTO [3]
  mechanism of inhibition of FTO: competitive inhibitor; also recorded: competitive mechanism of inhibition
[4]; TS576, 20 μM
  size of tumorospheres: significantly decrease the size of tumorospheres
[4]; TS576, 30 μM inhibitor, vs vehicle control
  size of tumorospheres: significant reduction in size of the tumorospheres
[5]
  size of tumorospheres: significantly decrease the size of tumorospheres
[6]
  size of tumorospheres: significantly decrease the size of tumorospheres
[7]
  neurosphere size / formation: without impairing hNSC neurosphere growth; also recorded: no alteration in neurosphere size; also recorded: without significantly altering hNSC neurosphere formation
[8]
  m6A mRNA levels (dot blot): increase m6A mRNA levels significantly; also recorded: increases m6A mRNA levels
